Reference: the NIST ThermoML archive (doi:10.1021/je200969r)

Experiment: refractive index (other wavelength) (dimensionless)
Conditions: 101.33 kPa, Liquid, Minimum Deviation technique

[2H]O[2H] [water-d2]
refractive index
Conditions	Wavelength=543.5 nm	Wavelength=594.1 nm	Wavelength=632.8 nm
288.35 K	1.33	1.3283	1.3272
293.29 K	1.3298	1.3281	1.327
298.12 K	1.3293	1.3278	1.3267
303.15 K	1.3285	1.3271	1.326
308.09 K	1.328	1.3266	1.3254
313.11 K	1.3275	1.3259	1.3249
318.13 K	1.3269	1.3254	1.3243
323.14 K	1.3263	1.3248	1.3237
328.12 K	1.3251	1.3236	1.3225
333.06 K	1.3244	1.3229	1.3219
337.98 K	1.3237	1.3221	1.3211
